In ChEMBL document CHEMBL5532741, “Novel 2,4-Dichloro-5-sulfamoylbenzoic Acid Oxime Esters: First Studies as Potential Human Carbonic Anhydrase Inhibitors” (ACS Med Chem Lett, 2024):
Activity calls are given as the source filed them. The calls are words filed in the database; no cut-off is given here.

Key:
MDA-MB-231 [1] = test: Antiproliferative activity against human MDA-MB-231 cells at high concentration measured after 72 hrs by cell counting kit 8 method; assay type: functional, cell-based
MDA-MB-231 [2] = test: Antiproliferative activity against human MDA-MB-231 cells measured after 72 hrs by cell counting kit 8 method; assay type: functional, cell-based; conditions: MDA-MB-231, 72 h
Homo sapiens [3] = species on record: Homo sapiens; test: Selectivity index, ratio of Ki for recombinant human CA9 to Ki for recombinant human CA2
Homo sapiens [4] = species on record: Homo sapiens; test: Selectivity index, ratio of Ki for recombinant human CA12 to Ki for recombinant human CA2

| IC50 (MDA-MB-231 [2]) | SMILES | other results |
| --- | --- | --- |
|  | NS(=O)(=O)c1cc(C(=O)O/N=C/c2ccccc2)c(Cl)cc1Cl | Activity (MDA-MB-231 [1]): inactive |
| 113 µM | COc1ccc(/C=N/OC(=O)c2cc(S(N)(=O)=O)c(Cl)cc2Cl)c(OC)c1OC |  |
| 108 µM | COc1cccc(OC)c1/C=N/OC(=O)c1cc(S(N)(=O)=O)c(Cl)cc1Cl |  |
| 18.2 µM | NS(=O)(=O)c1ccc(NC(=O)Nc2ccc(F)cc2)cc1 [SLC-0111] |  |
|  | NS(=O)(=O)c1cc(C(=O)O)c(Cl)cc1Cl | Ratio Ki (Homo sapiens [3]): 7.9; Ratio Ki (Homo sapiens [4]): 22.7 |
